Measured values as given in US20230226092A1, “CANCER […] ON G[…]” (NuCana plc, priority 2015, published 2023).

System: advance progressive cancers that are refractory to, or have relapsed on, all conventional therapies
Assay: ProGem1 dose escalation clinical study: clinical response (RECIST 1.1, tumour markers)
Type: in vivo, human
Design: CA125 level / CA19.9 / CEA / CA125 / Tumour volume / CA 15.3 tumour marker / inhibin B: unit not given here
Source text: The following data were generated in clinical studies of NUC-1031 in human patients with advance progressive cancers that are refractory to, or have relapsed on, all conventional therapies that have been used to date. The results clearly illustrate the ability of NUC-1031 to successfully treat refractory cancers.
Although the primary objectives of the dose escalation part of the study were to determine the Recommended Phase II Dose (RP2D) and safety profile, secondary objectives included determining the PK profile, however effective treatment of patients with a range of refractory cancers has also been observed as part of this study.
A total of 68 patients have been entered into this dose escalation study, of which 49 were evaluable for clinical response in that they have received at least 2 Cycles of NUC-1031 and were therefore eligible for a RECIST 1.1 assessment.
NUC-1031 was administered as a 5 to 30 minute intravenous slow bolus injection. • Schedule A: NUC-1031 was administered on days 1, 8, 15 of a 4 weekly Cycle. • Schedule B: NUC-1031 was administered on days 1, 5, 8, 12, 15, 19, of a 4 weekly Cycle.
Evaluable patients were patients that received ≥ 2 Cycles of NUC-1031 and were therefore eligible for a RECIST 1.1 assessment at the end of Cycle 2. Where the disease response duration, measured in months, is followed by a “+” this indicates ongoing disease control as of the latest cut-off date.

[1] = Patient 004, breast cancer, 500 mg/m^2 weekly
[2] = Patient 005, ovarian cancer, 500 mg/m^2 weekly
[3] = Patient 006, cholangiocarcinoma, 375 mg/m^2 twice weekly, then 500 mg/m^2 weekly
[4] = Patient 008, cancer of unknown primary, 375 mg/m^2 twice weekly
[5] = Patient 010, endometrial cancer
[6] = Patient 015, cancer of unknown primary, ongoing
[7] = Patient 021, fallopian tube cancer
[8] = Patient 025, mesothelioma, 725 mg/m^2 weekly
[9] = Patient 026, colorectal cancer, 725 mg/m^2 weekly
[10] = Patient 029, breast cancer, 725 mg/m^2 weekly
[11] = Patient 030, ovarian cancer, 725 mg/m^2 weekly
[12] = Patient 032, oesophageal cancer, 750 mg/m^2 weekly
[13] = Patient 033, cholangiocarcinoma, 750 mg/m^2 weekly

gemcitabine-[phenyl-benzoxy-L-alaninyl)]-phosphate [NUC-1031]
Disease response duration [1]: 12 months | Response to RECIST [1]: Stable Disease | Remained stable with no further treatment (Patient 004, breast cancer, after Cycle 7): 5 months | Disease response duration [2]: 15 months | Response to RECIST [2]: Stable Disease | Time to relapse after stopping treatment (Patient 005, ovarian cancer, after 12 months of treatment): 3 months | CA125 level (Patient 005, ovarian cancer, end of Cycle 6, from 208 at start of study): 140 | CT scan finding (Patient 006, cholangiocarcinoma): reduction in metastatic lung lesion and lymph node from baseline | Disease response duration [3]: 3 months | Response to RECIST [3]: Stable Disease | CA19.9 (Patient 006, cholangiocarcinoma, after two doses, from 125,002): 59,285 | Disease response duration (Patient 007, colorectal cancer): 3 months | Response to RECIST (Patient 007, colorectal cancer, 375 mg/m^2 twice weekly, then 500 mg/m^2 weekly): Stable Disease | CEA (Patient 007, colorectal cancer, from 361): 286 | CA19.9 (Patient 007, colorectal cancer, from 3,151): 2,957 | Disease response duration [4]: 3 months | Response to RECIST [4]: Stable Disease | Symptomatic benefit (Patient 008, cancer of unknown primary, Cycle 1): symptomatic relief on treatment and a general improvement in mood and wellbeing | Disease response duration [5]: 9 months | Stable Disease maintained after stopping NUC-1031 [5]: 3 months | Response to RECIST (Patient 010, endometrial cancer, 750 mg/m^2 weekly, then 500 mg/m^2): Stable Disease | CA125 (Patient 010, endometrial cancer, from 727): 488 | Disease response duration (Patient 011, uterine carcinosarcoma): 4 months | Reduction in tumour volume (Patient 011, uterine carcinosarcoma, 375 mg/m^2 twice weekly): 26% | Response to RECIST (Patient 011, uterine carcinosarcoma, 375 mg/m^2 twice weekly, then 625 mg/m^2 weekly): Stable Disease | Disease response duration (Patient 012, cholangiocarcinoma): 8 months | Response to RECIST (Patient 012, cholangiocarcinoma, 375 mg/m^2 twice weekly, then 625 mg/m^2 weekly): Stable Disease | Disease response duration (Patient 013, cervical cancer): 9 months | PFS (Patient 013, cervical cancer): 11 months | Response to RECIST (Patient 013, cervical cancer, 750, then 625, then 500 mg/m^2 weekly): Partial Response | Symptomatic benefit (Patient 013, cervical cancer, lower pelvic pain): relief of this pain on treatment, with significant reduction of opioid usage | Response to RECIST (Patient 014, mesothelioma, 750, then 625 mg/m^2 weekly): Progressive Disease | Response to RECIST (Patient 015, cancer of unknown primary, 750, then 625, then 500 mg/m^2 weekly): Partial Response | Reduction in tumour size (Patient 015, cancer of unknown primary, CT scan 9th January 2015): ~58% | Symptomatic benefit (Patient 015, cancer of unknown primary, following Cycle 1): the oedema and ascites had gone | Disease response duration [6]: ≥ 20 months | PFS [6]: ≥ 24 months | Disease response duration (Patient 017, lung cancer): 3 months | PFS (Patient 017, lung cancer): 10 months | Symptomatic benefit (Patient 017, lung cancer): improvement in hoarse voice and dysphagia | Response to RECIST (Patient 017, lung cancer (adenocarcinoma), 750, then 625 mg/m^2 weekly): Partial Response | Response to RECIST (Patient 018, lung cancer (squamous cell), 625 mg/m^2 weekly): Stable Disease | Disease response duration (Patient 018, lung cancer, 625 mg/m^2 weekly): 4 months | Response duration according to GCIG criteria [7]: 9 months | Response duration according to RECIST [7]: 3 months | Symptomatic benefit [7]: significant reduction in abdominal ascites | Best overall response (Patient 021, fallopian tube cancer, 625 mg/m^2 weekly): Partial Response | CA125 reduction from baseline (Patient 021, fallopian tube cancer, end of Cycle 6): 91% | CA125 (Patient 021, fallopian tube cancer, end of Cycle 6, baseline 372): 35 | Response to RECIST (Patient 024, cancer of unknown primary, 675 mg/m^2 weekly): Progressive Disease | Disease response duration [8]: 4 months | Response to RECIST [8]: Stable Disease | Symptomatic benefit (Patient 026, colorectal cancer): Significant improvement in pain, with dramatic reduction in use of opioid analgesia | Disease response duration [9]: 4 months | Response to RECIST [9]: Stable Disease | Disease response duration (Patient 027, ovarian cancer): 8 months | Reduction in tumour volume (Patient 027, ovarian cancer): 23% | Response to RECIST (Patient 027, ovarian cancer, 725, then 675, then 625 mg/m^2 weekly): Stable Disease | CA125 (Patient 027, ovarian cancer, end of Cycle 6, from 188 at baseline): 99 | Disease response duration [10]: 4 months | Response to RECIST [10]: Stable Disease | Disease response duration [11]: 3 months | Response to RECIST [11]: Stable Disease | Response (end of Cycle 2 CT scan) (Patient 031, cholangiocarcinoma, 750 mg/m^2 weekly): Progressive Disease | Disease response duration [12]: 2 months | Response to RECIST [12]: Stable Disease | Disease response duration [13]: 3 months | Response to RECIST [13]: Stable Disease | Disease response duration (Patient 036, renal carcinoma): 5 months | Response to RECIST (Patient 036, renal carcinoma, 825, then 750 mg/m^2 weekly): Stable Disease | Reduction in tumour volume (Patient 036, renal carcinoma, end of Cycle 4 CT scan): 7% | Disease response duration (Patient 037, pancreatic cancer): 1 month | PFS (Patient 037, pancreatic cancer): 4 months | Symptomatic benefit (Patient 037, pancreatic cancer): Pain in abdomen and back had significantly improved | Response to RECIST (Patient 037, pancreatic cancer, 1,000, then 900 mg/m^2 weekly): Partial Response
